Square brackets hold non-standard residues; d marks the D form. Peptide text beside a SMILES is read from it. * marks the point of attachment. Dansyl = CN(C)c1cccc2c(S(=O)(=O)*)cccc12; Dmt = Cc1cc(O)cc(C)c1C[C@H](N)C(=O)O; 2Abz = Nc1ccccc1C(=O)O; Dap = NC[C@H](N)C(=O)O; Sar = CNCC(=O)O
Legend:
Caco-2 cells [1] = assay: Assay for peptide efflux from Caco-2 cells; assay type: cell-based
Procedure: Assay for Peptide Efflux from CaCo-2 Cells. […] Cells were then washed four times with 1 ml of ice-cold incubation solution to terminate uptake and then incubated with 0.5 ml of MEM for 1 h at either 37 or 4° C. to measure the efflux of peptide from cells to the incubation medium. The amount of radioactivity was determined in cell lysates and in the incubation medium.

Caco-2 monolayer = assay: Peptide translocation across Caco-2 monolayers (Transwell, apical-to-basolateral); assay type: in vitro ADME; conditions: 60 min
Procedure: (§1) Assay for Peptide Translocation across Caco-2 Monolayers. Monolayers of Caco-2 cells were prepared as described previously (Irie et al., J. Pharmacol. Exp. Ther. 2001, 298: 711-717), Caco-2 cells (2×10^5) were seeded on microporous membrane filters (24 mm, […]) inside Transwell cell culture chambers (Corning Glassworks, Corning, N.Y.). Each Transwell chamber was filled with 1.5 ml of medium in the apical compartment and 2.5 ml in the basolateral compartment. The cell monolayers were given fresh medium every 1 to 2 days and were used on day 28 for transport experiments.
(§2) The apparent permeability coefficient was calculated according to the following equation: Papp=X/(t·A·Co), where X/t is the rate of uptake in the receiver compartment, A is the diffusion area (4.72 cm^2), and Co is the initial concentration in the donor compartment.

[2] = as above; assay type: in vitro ADME; conditions: Caco-2; apical-to-basolateral; read-out: apparent permeability coefficient
Procedure: as §1, §2

Caco-2 cells [3] = conditions: Terada et al. 1999; confirmed in this study (FIG. 2B); cited from earlier work
Caco-2 cells [4] = assay: Assay for peptide uptake in Caco-2 cells; assay type: cell-based
Description: Assay for Peptide Uptake.

SH-SY5Y cells = assay: Confocal laser scanning microscopy of fluorescent peptide uptake, SH-SY5Y cells; assay type: cell-based; conditions: 0.1 μM, 30 min at 4° C.
Procedure: Confocal Laser Scanning Microscopy. The uptake of aromatic-cationic peptides into cells was confirmed by confocal laser scanning microscopy (CLSM) using two fluorescent peptides, [Dmt^1,dnsDap^4]DALDA (Dmt-D-Arg-Phe-dnsDap-NH2, where dnsDap is β-dansyl-1-α-β-diamino-propionic acid) and [Dmt^1.atnDap^4]DALDA (Dmt-D-Arg-Phe-atnDap-NH2, where atn is β-anthraniloyl-L-α-β-diaminopropionic acid). Caco-2 cells or SH-SYSY cells were grown as described above and were plated on (35-mm) glass bottom dishes (MatTek, Ashland, Mass.) for 2 days. […] Cells were then washed three times with ice-cold HESS and covered with 200 μl of PBS, and microscopy was performed within 10 min at room temperature using a confocal laser scanning microscope with a C-Apochromat 63×/1.2 W torr objective (Nikon, Tokyo, Japan). Excitation/emission wavelengths were set at 340/520 nm for [Dmt^1,dnsDap^4]DALDA and 320/420 nm for [Dmt^1,atnDap^4]-DALDA, respectively. For optical sectioning in z-direction, 5 to 10 frames with […] were made.

Caco-2 cells [5] = assay: Uptake of peptide-β-Gal conjugates into cells (β-gal staining); assay type: cell-based; conditions: 1 h at 37° C.
Description: Conjugation of protein to [Dmt1]DALDA. was cross-linked to β-galactosidase (recombinant E. coli, Sigma-Aldrich) using a cross-linker SMCC (succinimidyl 4-(N-maleimidomethyl)yclohexane-1-carboxylate)(Pierce). […] Its maleimide end can then be conjugated to a sulfhydryl-containing compound to create a thioether linkage (Bioconjugate Techniques by Greg T. Hermanson, Academic Press, page 234-237). β-Gal contains abundant free sulfhydryl groups in its native state. The uptake of β-Gal provides a convenient read-out with the use of X-gal. […] This should result in “activated peptide.” The “activated peptide” was diluted 1:10 with phosphate buffer. 1 mg of β-Gal was added to 1 ml of the 1:10 “activated peptide” and mixed at 4° C. for either 2 h or overnight.
Assay for [Dmt1]DALDA-protein conjugate uptake into cells. […] Cells were then washed 4 times with PBS. The cells were then stained with β-gal staining set (Roche) for at least 2 h at 37° C. and examined under the microscope.
This should result in “activated peptide.” The “activated peptide” was diluted 1:10 with phosphate buffer. 1 mg of β-Gal was added to 1 ml of the 1:10 “activated peptide” and mixed at 4° C. for either 2 h or overnight.
Cells were then washed 4 times with phosphate buffer. The cells were then stained with β-gal staining set (Roche) for at least 2 h at 37° C. and examined under the microscope.

Huh7 cells = assay: Cell viability by trypan blue uptake; assay type: cell-based; conditions: 50 μl of 1 mM conjugate in 1 ml medium, 24 hours at 37° C.
Procedure: Trypan blue is only taken by cells with increased membrane permeability. Huh7 cells (1×10^6) were washed three times in DMEM, and 1 ml of fresh medium, or media containing 50 μl of 1 mM [Dmt^1]DALDA-SMCC conjugate, [D-Arg-Dmt-Lys-Phe-NH2]-SMCC conjugate, or [Phe^1]DALDA-SMCC conjugate, and incubated at 37° C. for 24 hours at 5% CO2. Cells were then washed three times with DMEM, and 1 ml of 0.4% trypan blue was added to the cells for 2 minutes. Excessive dye was removed by washing cells in cell medium and the cells were examined by light microscopy.

Caco-2 cells [6] = assay: Confocal laser scanning microscopy of fluorescent peptide uptake, Caco-2 cells; assay type: cell-based; conditions: 0.1 μM, 15 min at 37° C.
Procedure: Confocal Laser Scanning Microscopy. The uptake of aromatic-cationic peptides into cells was confirmed by confocal laser scanning microscopy (CLSM) using two fluorescent peptides, [Dmt^1,dnsDap^4]DALDA (Dmt-D-Arg-Phe-dnsDap-NH2, where dnsDap is β-dansyl-1-α-β-diamino-propionic acid) and [Dmt^1.atnDap^4]DALDA (Dmt-D-Arg-Phe-atnDap-NH2, where atn is β-anthraniloyl-L-α-β-diaminopropionic acid). Caco-2 cells or SH-SYSY cells were grown as described above and were plated on (35-mm) glass bottom dishes (MatTek, Ashland, Mass.) for 2 days. The medium was then removed, and cells were incubated with 1 ml of HBSS containing 0.1 μM of the fluorescent peptide at either 4° C. or 37° C. for 15 min. Cells were then washed three times with ice-cold HESS and covered with 200 μl of PBS, and microscopy was performed within 10 min at room temperature using a confocal laser scanning microscope with a C-Apochromat 63×/1.2 W torr objective (Nikon, Tokyo, Japan). Excitation/emission wavelengths were set at 340/520 nm for [Dmt^1,dnsDap^4]DALDA and 320/420 nm for [Dmt^1,atnDap^4]-DALDA, respectively. For optical sectioning in z-direction, 5 to 10 frames with […] were made.

With `CN(CC(=O)O)C(=O)CN` [Gly-Sar, reference compound] (H-Gly-[Sar]-OH) as the compound, how does the “effect of temperature (4° C.) on efflux” value (Caco-2 cells [1]; 4° C. versus 37° C.) read?
Its value is “significantly reduced”.

And the “peptide effluxed into medium” value (Caco-2 cells [1]; preloaded 1 h, 1 h efflux at 37° C.)?
Its value is 39%.

What about the “percentage translocated from the apical to the basolateral side” value (Caco-2 monolayer) of the same compound?
The value was 11.9%.

And the Papp A→B [2]?
Its Papp A→B is 12.6 ×10⁻⁶ cm/s.

And the “pH of optimal uptake (by PEPT1)” value (Caco-2 cells [3])?
The value was 6.0.

What about the “effect of DEPC on uptake” value (Caco-2 cells [4]; 0.2 mM DEPC) of the same compound?
The value was “significantly inhibited”.

And the “effect of 4° C. on uptake” value (Caco-2 cells [4]; 4° C. versus 37° C.)?
The value was “completely abolished”.

And the “time course of uptake” value (Caco-2 cells [4]; 37° C., 50 μM)?
Its value is “continued to increase from 5 to 45 min”.

Which “internalization at 4° C.” value (SH-SY5Y cells) does the source give for `Cc1cc(O)cc(C)c1C[C@H](N)C(=O)N[C@H](CCCNC(=N)N)C(=O)N[C@@H](Cc1ccccc1)C(=O)N[C@@H](CNC(=O)c1ccccc1N)C(N)=O` [[Dmt^1,atnDap^4]DALDA, Dmt-D-Arg-Phe-atnDap-NH2] (H-[Dmt][dR]F[Dap](2Abz)-NH2; N-terminus assumed) here?
Its value is “energy-independent non-endocytotic uptake mechanism”.

With “β-Gal: β-galactosidase (recombinant E. coli, Sigma-Aldrich), protein cargo” as the compound, how does the “uptake of β-Gal into cells (blue cells)” value (Caco-2 cells [5]) read?
The value was “no uptake”.

For `CCOC(=O)OC(=O)OCC` [DEPC, diethylpyrocarbonate, reference compound], which “trypan blue uptake (cell viability)” value (Huh7 cells) is on record?
Its value is “significant uptake of trypan blue”.

Which “uptake of β-Gal into cells (blue cells)” value (Caco-2 cells [5]) does the source give for “β-Gal with SMCC: β-Gal conjugated with SMCC alone, without peptide (control) [reference compound]” here?
Its value is “did not enhance uptake”.

What does the source list for `Cc1cc(O)cc(C)c1C[C@H](N)C(=O)N[C@H](CCCNC(=N)N)C(=O)N[C@@H](Cc1ccccc1)C(=O)N[C@@H](CNS(=O)(=O)c1cccc2c(N(C)C)cccc12)C(N)=O` [[Dmt^1,dnsDap^4]DALDA, Dmt-D-Arg-Phe-dnsDap-NH2] (H-[Dmt][dR]F[Dap](Dansyl)-NH2; N-terminus assumed)?
intracellular distribution of fluorescence (Caco-2 cells [6]): diffuse throughout the cytoplasm with no apparent vesicular distribution; nuclear localisation of fluorescence (Caco-2 cells [6]): completely excluded from the nucleus; intracellular distribution of fluorescence (Caco-2 cells [6]; dnsDap^4]DALDA): diffuse throughout the cytoplasm

Which “trypan blue uptake (cell viability)” value (Huh7 cells) does the source give for `N=C(N)NCCC[C@@H](NC(=O)[C@@H](N)Cc1ccccc1)C(=O)N[C@@H](Cc1ccccc1)C(=O)N[C@@H](CCCCN)C(N)=O` [[Phe^1]DALDA, Phe-D-Arg-Phe-Lys-NH2] (H-F[dR]FK-NH2; N-terminus assumed) here?
The value was “No increase in trypan blue uptake”.

Reference: US11845807B2, “Method and carrier complexes for delivering molecules to cells” (priority 2003, dated 2023)
